According to patent publication US20250084063A1 (Incyte Corporation, priority 2023, published 2025):

Legend:
Format in all cases: cell-based
MRGPRX2 [1] = target: T1, MRGPRX2 (Homo sapiens, UniProt Q96LB1); test: MRGPRX2 FLIPR calcium mobilization assay; design: host or cells: CHO-K1; settings: CHO-K1 cells stably expressing human MRGPRX2; Ca2+ release, agonist Cortistatin-14 at EC80
T1 sequence (Q96LB1 1-330): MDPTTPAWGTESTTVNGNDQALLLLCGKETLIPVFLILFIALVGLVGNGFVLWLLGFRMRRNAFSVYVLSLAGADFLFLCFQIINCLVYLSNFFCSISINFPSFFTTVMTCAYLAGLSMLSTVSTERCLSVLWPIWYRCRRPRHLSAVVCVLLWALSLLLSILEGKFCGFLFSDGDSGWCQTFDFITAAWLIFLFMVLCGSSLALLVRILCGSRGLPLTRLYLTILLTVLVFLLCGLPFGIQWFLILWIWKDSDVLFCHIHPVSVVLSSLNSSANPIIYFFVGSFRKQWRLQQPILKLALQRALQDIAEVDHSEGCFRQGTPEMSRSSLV
Method in brief: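 CHO-K1 cells stably expressing human MRGPRX2, loaded with Calcium 6 dye, pre-incubated 30 min at room temperature with test compound in HBSS/20 mM HEPES pH 7.4. Then challenged with Cortistatin-14 at EC80; baseline-adjusted peak fluorescence over 110 s fitted to a Hill equation for IC50.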

MRGPRX2 [2] = target: T1, MRGPRX2; test: MRGPRX2 IP1 HTRF assay; design: host or cells: CHO-K1; settings: CHO-K1 cells stably expressing human MRGPRX2; IP1 accumulation, agonist Cortistatin 14 1 μM
MRGPRX2 [3] = target: T1, MRGPRX2; test: MRGPRX2 β-Arrestin assay; design: host or cells: PathHunter CHO-K1; settings: PathHunter CHO-K1 MRGPRX2 β-Arrestin cell line; agonist Cortistatin 14 0.25 μM
Method in brief: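 PathHunter CHO-K1 cells expressing ProLink-tagged MRGPRX2 and enzyme-acceptor-tagged β-arrestin were preincubated with serially diluted compound 1 h at 37 °C, then stimulated with 0.25 μM cortistatin 14 (final) for 90 min. β-arrestin recruitment was read by luminescence; IC50 from 3- or 4-parameter Hill fits normalised to DMSO and reference antagonist controls.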

Structure (SMILES) | IC50 (MRGPRX2 [1]) | IC50 (MRGPRX2 [2]) | IC50 (MRGPRX2 [3])
NS(=O)(=O)N1CC(CNc2cc(C(F)(F)F)nc3ccc(Cl)cc23)(c2cccc(F)c2)C1 [Example 31, 3-(((6-Chloro-2-(trifluoromethyl)quinolin-4-yl)amino)methyl)-3-(3-fluorophenyl)azetidine-1-sulfonamide] | 0.1 to 100 nM | 0.1 to 100 nM | 0.1 to 100 nM
FC(F)(F)c1cc(NCC2(c3ccccc3)CCOCC2)c2cc(Cl)ccc2n1 [Example 17, 6-Chloro-N-((4-phenyltetrahydro-2H-pyran-4-yl)methyl)-2-(trifluoromethyl)quinolin-4-amine] | 0.1 to 100 nM | 0.1 to 100 nM | 0.1 to 100 nM
NC(=O)N1CC(CNc2cc(C(F)(F)F)nc3ccc(Cl)cc23)(n2cc(Cl)cn2)C1 [Example 37, 3-(4-Chloro-1H-pyrazol-1-yl)-3-(((6-chloro-2-(trifluoromethyl)quinolin-4-yl)amino)methyl)azetidine-1-carboxamide] | 0.1 to 100 nM | 0.1 to 100 nM | 0.1 to 100 nM
Cc1csc(C2(CNc3cc(C(F)(F)F)nc4ccc(Cl)cc34)CN(S(N)(=O)=O)C2)n1 [Example 81, 3-(((6-Chloro-2-(trifluoromethyl)quinolin-4-yl)amino)methyl)-3-(4-methylthiazol-2-yl)azetidine-1-sulfonamide] | 0.1 to 100 nM | 100 to 1000 nM | 0.1 to 100 nM
CC(C)NC(=O)N1CC(CNc2cc(C(F)(F)F)nc3ccc(Cl)cc23)(n2cc(F)cn2)C1 [Example 21, 3-(((6-Chloro-2-(trifluoromethyl)quinolin-4-yl)amino)methyl)-3-(4-fluoro-1H-pyrazol-1-yl)-N-isopropylazetidine-1-carboxamide] | 0.1 to 100 nM | 0.1 to 100 nM | 0.1 to 100 nM
CNC(=O)N1CC(CNc2cc(C(F)(F)F)nc3ccc(Cl)cc23)(n2cc(Cl)cn2)C1 [Example 98, 3-(4-Chloro-1H-pyrazol-1-yl)-3-(((6-chloro-2-(trifluoromethyl)quinolin-4-yl)amino)methyl)-N-methylazetidine-1-carboxamide] | 0.1 to 100 nM | 0.1 to 100 nM | 0.1 to 100 nM
NS(=O)(=O)N1CC(CNc2cc(C(F)(F)F)nc3ccc(Cl)cc23)(c2ccc(F)cn2)C1 [Example 46, 3-(((6-Chloro-2-(trifluoromethyl)quinolin-4-yl)amino)methyl)-3-(5-fluoropyridin-2-yl)azetidine-1-sulfonamide] | 0.1 to 100 nM | 0.1 to 100 nM | 0.1 to 100 nM
CNC(=O)N1CC(CNc2cc(C(F)(F)F)nc3ccc(Cl)cc23)(n2cccn2)C1 [Example 52, 3-(((6-Chloro-2-(trifluoromethyl)quinolin-4-yl)amino)methyl)-N-methyl-3-(1H-pyrazol-1-yl)azetidine-1-carboxamide] | 0.1 to 100 nM | 0.1 to 100 nM | 0.1 to 100 nM
O=C1CCC(CNc2cc(C(F)(F)F)nc3ccc(Cl)cc23)(c2ccccc2)N1 (stereo not drawn) [Example 45, 5-(((6-Chloro-2-(trifluoromethyl)quinolin-4-yl)amino)methyl)-5-phenylpyrrolidin-2-one] | 0.1 to 100 nM | 0.1 to 100 nM | 0.1 to 100 nM
NS(=O)(=O)N1CC(CNc2cc(C(F)(F)F)nc3ccc(Cl)cc23)(n2cc(F)cn2)C1 [Example 24, 3-(((6-Chloro-2-(trifluoromethyl)quinolin-4-yl)amino)methyl)-3-(4-fluoro-1H-pyrazol-1-yl)azetidine-1-sulfonamide] | 0.1 to 100 nM | 0.1 to 100 nM | 0.1 to 100 nM
NC(=O)N1CCC(CNc2cc(C(F)(F)F)nc3ccc(Cl)cc23)(c2ccc(F)cn2)C1 (stereo not drawn) [Example 20, 3-(((6-Chloro-2-(trifluoromethyl)quinolin-4-yl)amino)methyl)-3-(5-fluoropyridin-2-yl) pyrrolidine-1-carboxamide] | 0.1 to 100 nM | 0.1 to 100 nM | 0.1 to 100 nM
O=C1CC(CNc2cc(C(F)(F)F)nc3ccc(Cl)cc23)(c2ccccc2)CN1 (stereo not drawn) [Example 8, 4-(((6-Chloro-2-(trifluoromethyl)quinolin-4-yl)amino)methyl)-4-phenylpyrrolidin-2-one] | 0.1 to 100 nM | 0.1 to 100 nM | 0.1 to 100 nM
CNC(=O)N1CC(CNc2cc(C(F)(F)F)nc3ccc(Cl)cc23)(n2cc(F)cn2)C1 [Example 44, 3-(((6-Chloro-2-(trifluoromethyl)quinolin-4-yl)amino)methyl)-3-(4-fluoro-1H-pyrazol-1-yl)-N-methylazetidine-1-carboxamide] | 0.1 to 100 nM | 0.1 to 100 nM | 0.1 to 100 nM
O=C(NC1CC(F)(F)C1)N1CC(CNc2cc(C(F)(F)F)nc3ccc(Cl)cc23)(n2cc(F)cn2)C1 [Example 22, 3-(((6-Chloro-2-(trifluoromethyl)quinolin-4-yl)amino)methyl)-N-(3,3-difluorocyclobutyl)-3-(4-fluoro-1H-pyrazol-1-yl)azetidine-1-carboxamide] | 0.1 to 100 nM | 0.1 to 100 nM | 0.1 to 100 nM
[2H]C([2H])([2H])NC(=O)N1CC(CNc2cc(C(F)(F)F)nc3ccc(Cl)cc23)(n2ccc(F)n2)C1 [Example 109, 3-(((6-Chloro-2-(trifluoromethyl)quinolin-4-yl)amino)methyl)-3-(3-fluoro-1H-pyrazol-1-yl)-N-(methyl-d3)azetidine-1-carboxamide] | 0.1 to 100 nM | 0.1 to 100 nM | 0.1 to 100 nM
O=C1NC(=O)C2(CC(CNc3cc(C(F)(F)F)nc4ccc(Cl)cc34)(c3ccccc3)C2)N1 (stereo not drawn) [Example 108, 2-(((6-Chloro-2-(trifluoromethyl)quinolin-4-yl)amino)methyl)-2-phenyl-5,7-diazaspiro[3.4]octane-6,8-dione] | 0.1 to 100 nM | 0.1 to 100 nM | 0.1 to 100 nM
O=C(NC1CC(O)C1)N1CC(CNc2cc(C(F)(F)F)nc3ccc(Cl)cc23)(n2cc(F)cn2)C1 (stereo not drawn) [Example 106, 3-(((6-Chloro-2-(trifluoromethyl)quinolin-4-yl)amino)methyl)-3-(4-fluoro-1H-pyrazol-1-yl)-N-(3-hydroxycyclobutyl)azetidine-1-carboxamide] | 0.1 to 100 nM | 0.1 to 100 nM | 0.1 to 100 nM
N#CN=C(N)N1CCC(CNc2cc(C(F)(F)F)nc3ccc(Cl)cc23)(c2ccccc2)CC1 [Example 9, 4-(((6-Chloro-2-(trifluoromethyl)quinolin-4-yl)amino)methyl)-N′-cyano-4-phenylpiperidine-1-carboximidamide] | 0.1 to 100 nM | 0.1 to 100 nM | 0.1 to 100 nM
Cn1ncc2cc(C3(CNc4cc(C(F)(F)F)nc5ccc(Cl)cc45)CN(S(N)(=O)=O)C3)ccc21 [Example 82, 3-(((6-Chloro-2-(trifluoromethyl)quinolin-4-yl)amino)methyl)-3-(1-methyl-1H-indazol-5-yl)azetidine-1-sulfonamide] | 0.1 to 100 nM | 100 to 1000 nM | 0.1 to 100 nM
FC(F)(F)c1cc(NCC2(c3ccccc3)CCOC2)c2cc(Cl)ccc2n1 (stereo not drawn) [Example 16, 6-Chloro-N-((3-phenyltetrahydrofuran-3-yl)methyl)-2-(trifluoromethyl)quinolin-4-amine] | 0.1 to 100 nM | 0.1 to 100 nM | 0.1 to 100 nM
[2H]C([2H])([2H])NC(=O)N1CC(CNc2cc(C(F)(F)F)nc3ccc(Cl)cc23)(n2cc(F)cn2)C1 [Example 26, 3-(((6-Chloro-2-(trifluoromethyl)quinolin-4-yl)amino)methyl)-3-(4-fluoro-1H-pyrazol-1-yl)-N-(methyl-d3)azetidine-1-carboxamide] | 0.1 to 100 nM | 0.1 to 100 nM | 0.1 to 100 nM
NC(=O)N1CC(CNc2cc(C(F)(F)F)nc3ccc(F)cc23)(c2ccc(F)cc2)C1 [Example 25, 3-(((6-Fluoro-2-(trifluoromethyl)quinolin-4-yl)amino)methyl)-3-(4-fluorophenyl)azetidine-1-carboxamide] | 0.1 to 100 nM | 0.1 to 100 nM | 0.1 to 100 nM
NS(=O)(=O)N1CC(CNc2cc(C(F)(F)F)nc3ccc(C(F)(F)F)cc23)(c2ccc(F)cc2)C1 [Example 1, 3-(((2,6-Bis(trifluoromethyl)quinolin-4-yl)amino)methyl)-3-(4 fluorophenyl)azetidine-1-sulfonamide] | 0.1 to 100 nM | 0.1 to 100 nM | 0.1 to 100 nM
[2H]C([2H])([2H])NC(=O)N1CC(CNc2cc(C(F)(F)F)nc3ccc(Cl)cc23)(n2cc(Cl)cn2)C1 [Example 30, 3-(4-Chloro-1H-pyrazol-1-yl)-3-(((6-chloro-2-(trifluoromethyl)quinolin-4-yl)amino)methyl)-N-(methyl-d3)azetidine-1-carboxamide] | 0.1 to 100 nM | 0.1 to 100 nM | 0.1 to 100 nM
NS(=O)(=O)N1CCC(CNc2cc(C(F)(F)F)nc3ccc(Cl)cc23)(c2ccccc2)CC1 [Example 12, 4-(((6-Chloro-2-(trifluoromethyl)quinolin-4-yl)amino)methyl)-4-phenylpiperidine-1-sulfonamide] | 0.1 to 100 nM | 0.1 to 100 nM | 0.1 to 100 nM
